Columns and labels:
[1] = molecular target: T1, CCK2 receptor (Homo sapiens, UniProt P32239); assay: CCK2 binding assay ([125I]-BH-CCK-8S displacement, HEKZFP membranes); conditions: membranes of doxycycline-induced HEKZFP cells, 20 pM [125I]-BH-CCK-8S, 60 min at 21±3° C.; for Ki: read-out: CCK2 pKi (converted)
T1 construct: analyzed for ZFP expression as well as CCK2R induction upon addition of doxycycline to the culture medium; endogenous in cells
T1 sequence (P32239 1-447): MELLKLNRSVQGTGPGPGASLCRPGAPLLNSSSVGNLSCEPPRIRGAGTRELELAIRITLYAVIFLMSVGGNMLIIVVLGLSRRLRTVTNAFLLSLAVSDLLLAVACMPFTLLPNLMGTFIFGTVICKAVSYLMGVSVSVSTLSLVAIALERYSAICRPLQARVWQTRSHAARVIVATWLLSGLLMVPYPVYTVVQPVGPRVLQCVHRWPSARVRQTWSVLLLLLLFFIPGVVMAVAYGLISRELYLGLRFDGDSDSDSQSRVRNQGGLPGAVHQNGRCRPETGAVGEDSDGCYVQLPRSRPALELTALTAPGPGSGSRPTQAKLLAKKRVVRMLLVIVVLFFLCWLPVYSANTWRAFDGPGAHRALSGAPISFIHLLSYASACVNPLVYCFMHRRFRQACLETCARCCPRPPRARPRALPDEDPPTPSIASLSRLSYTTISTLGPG

[2] = molecular target: T2, CCK-1 receptor (Homo sapiens, UniProt P32238); assay: CCK1 binding assay ([125I]-BH-CCK-8S displacement, CHO-K1 membranes); conditions: membranes of CHO-K1 cells stably transfected with the CCK-1 receptor, 20 pM [125I]-BH-CCK-8S, 0.3 μM PD-134,308 present, 60 min at 21±3° C.; for Ki: read-out: CCK1 pKi (converted)
T2 construct: expressed in transfected cells; host or cells: CHO-K1
T2 sequence (P32238 1-428): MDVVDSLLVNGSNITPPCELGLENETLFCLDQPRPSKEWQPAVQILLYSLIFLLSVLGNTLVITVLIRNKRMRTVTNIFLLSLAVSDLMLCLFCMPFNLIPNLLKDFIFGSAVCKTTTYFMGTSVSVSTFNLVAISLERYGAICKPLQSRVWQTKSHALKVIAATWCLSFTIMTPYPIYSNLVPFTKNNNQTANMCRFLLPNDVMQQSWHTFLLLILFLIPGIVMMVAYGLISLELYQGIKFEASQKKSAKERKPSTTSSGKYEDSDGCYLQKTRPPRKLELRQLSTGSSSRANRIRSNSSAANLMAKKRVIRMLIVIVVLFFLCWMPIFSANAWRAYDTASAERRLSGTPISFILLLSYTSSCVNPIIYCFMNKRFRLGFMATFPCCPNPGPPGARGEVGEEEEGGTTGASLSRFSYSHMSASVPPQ
Method in brief: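 Membranes from CHO-K1 cells stably expressing CCK-1 incubated 1 h at 21±3° C with 20 pM [125I]-BH-CCK-8S in HEPES buffer pH 7.2 containing 0.3 μM PD-134,308 to block CCK-2. Bound radioactivity read by gamma counting after filtration. pKi derived via Cheng-Prusoff, with specific binding defined using 2-NAP.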

| SMILES | Ki [1] [nM] | Ki [2] [nM] | CCK2 pKi [1] | CCK1 pKi [2] |
| --- | --- | --- | --- | --- |
| O=C(N[C@@H](Cc1ccc(Cl)c(Cl)c1)C(=O)O)c1cc(Cl)c(Cl)cc1NS(=O)(=O)c1cccc2nsnc12 [Example 141, (S)-2-[2-(Benzo[1,2,5]thiadiazole-4-sulfonylamino)-4,5-dichloro-benzoylamino]-3-(3,4-dichloro-phenyl)-propionic acid] | 63.1 | 100 | – | – |
| COC(=O)[C@H](Cc1ccc(Cl)c(Br)c1)NC(=O)c1ccc(Br)cc1NS(=O)(=O)c1cccc2nsnc12 [Example 142, (S)-2-[2-(Benzo[1,2,5]thiadiazole-4-sulfonylamino)-4-bromo-benzoylamino]-3-(3-bromo-4-chloro-phenyl)-propionic acid methyl ester] | 631 | 158 | – | – |
| COC(=O)[C@H](Cc1ccc(F)c(Br)c1)NC(=O)c1ccc(Br)cc1NS(=O)(=O)c1cccc2nsnc12 [Example 143, (S)-2-[2-(Benzo[1,2,5]thiadiazole-4-sulfonylamino)-4-bromo-benzoylamino]-3-(3-bromo-4-fluoro-phenyl)-propionic acid methyl ester] | 200 | 158 | – | – |
| O=C(O)/C(=C/c1ccc(Cl)c(Cl)c1)NC(=O)c1cc(Cl)c(Cl)cc1NS(=O)(=O)c1cccc2nsnc12 [Example 144, (Z)-2-[2-(Benzo[1,2,5]thiadiazole-4-sulfonylamino)-4,5-dichloro-benzoylamino]-3-(3,4-dichloro-phenyl)-acrylic acid] | 50.1 | 501 | – | – |
| O=C(N[C@@H](Cc1ccc(Cl)c(Br)c1)C(=O)O)c1ccc(Cl)cc1NS(=O)(=O)c1cccc2nsnc12 [Example 145, (S)-2-[2-(Benzo[1,2,5]thiadiazole-4-sulfonylamino)-4-chloro-benzoylamino]-3-(3-bromo-4-chloro-phenyl)-propionic acid] | – | – | 7.4 | 6.7 |
| O=C(N[C@@H](Cc1ccc(Cl)c(Br)c1)C(=O)O)c1ccc(Cl)cc1NS(=O)(=O)c1cccc2nccnc12 [Example 146, (S)-3-(3-Bromo-4-chloro-phenyl)-2-[4-chloro-2-(quinoxaline-5-sulfonylamino)-benzoylamino]-propionic acid] | 25.1 | 251 | – | – |
| O=C(N[C@@H](Cc1ccc(Cl)c(Br)c1)C(=O)O)c1cc(Cl)c(Cl)cc1NS(=O)(=O)c1cccc2nsnc12 [Example 147, (S)-2-[2-(Benzo[1,2,5]thiadiazole-4-sulfonylamino)-4,5-dichloro-benzoylamino]-3-(3-bromo-4-chloro-phenyl)-propionic acid] | 39.8 | 158 | – | – |
| O=C(N[C@@H](Cc1ccc(Cl)c(Br)c1)C(=O)O)c1cc(Cl)c(Cl)cc1NS(=O)(=O)c1cccc2nccnc12 [Example 148, (S)-3-(3-Bromo-4-chloro-phenyl)-2-[4,5-dichloro-2-(quinoxaline-5-sulfonylamino)-benzoylamino]-propionic acid] | 63.1 | 251 | – | – |
| COC(=O)[C@H](Cc1ccc(F)c(Br)c1)NC(=O)c1ccc(Cl)cc1NS(=O)(=O)c1cccc2nsnc12 [Example 149, (S)-2-[2-(Benzo[1,2,5]thiadiazole-4-sulfonylamino)-4-chloro-benzoylamino]-3-(3-bromo-4-fluoro-phenyl)-propionic acid methyl ester] | 200 | 200 | – | – |
| COC(=O)[C@H](Cc1ccc(F)c(Br)c1)NC(=O)c1cc(Cl)c(Cl)cc1NS(=O)(=O)c1cccc2nsnc12 [Example 150, (S)-2-[2-(Benzo[1,2,5]thiadiazole-4-sulfonylamino)-4,5-dichloro-benzoylamino]-3-(3-bromo-4-fluoro-phenyl)-propionic acid methyl ester] | 251 | 79.4 | – | – |
| COC(=O)[C@H](Cc1ccc(F)c(Br)c1)NC(=O)c1ccc(Br)cc1NS(=O)(=O)c1cccc2nccnc12 [Example 151, (S)-3-(3-Bromo-4-fluoro-phenyl)-2-[4-bromo-2-(quinoxaline-5-sulfonylamino)-benzoylamino]-propionic acid methyl ester] | 126 | 794 | – | – |
| COC(=O)[C@H](Cc1ccc(F)c(Br)c1)NC(=O)c1ccc(Cl)cc1NS(=O)(=O)c1cccc2nccnc12 [Example 152, (S)-3-(3-Bromo-4-fluoro-phenyl)-2-[4-chloro-2-(quinoxaline-5-sulfonylamino)-benzoylamino]-propionic acid methyl ester] | 158 | 1000 | – | – |
| COC(=O)[C@H](Cc1ccc(F)c(Br)c1)NC(=O)c1cc(Cl)c(Cl)cc1NS(=O)(=O)c1cccc2nccnc12 [Example 153, (S)-3-(3-Bromo-4-fluoro-phenyl)-2-[4,5-dichloro-2-(quinoxaline-5-sulfonylamino)-benzoylamino]-propionic acid methyl ester] | – | – | 6.6 | 6.7 |
| COC(=O)[C@H](Cc1ccc(Cl)c(Cl)c1)NC(=O)c1ccc(I)cc1NS(=O)(=O)c1cccc2nsnc12 [Example 154, (S)-2-[2-(Benzo[1,2,5]thiadiazole-4-sulfonylamino)-4-iodo-benzoylamino]-3-(3,4-dichloro-phenyl)-propionic acid methyl ester] | 251 | 158 | – | – |
| O=C(N[C@@H](Cc1ccc(Cl)c(Br)c1)C(=O)O)c1ccc(Br)cc1NS(=O)(=O)c1cccc2nccnc12 [Example 155, (S)-3-(3-Bromo-4-chloro-phenyl)-2-[4-bromo-2-(quinoxaline-5-sulfonylamino)-benzoylamino]-propionic acid] | – | – | 8.0 | 7.0 |
| O=C(N[C@@H](Cc1ccc(F)c(Br)c1)C(=O)O)c1ccc(Cl)cc1NS(=O)(=O)c1cccc2nsnc12 [Example 156, (S)-2-[2-(Benzo[1,2,5]thiadiazole-4-sulfonylamino)-4-chloro-benzoylamino]-3-(3-bromo-4-fluoro-phenyl)-propionic acid] | – | – | 8.0 | 6.6 |
| O=C(N[C@@H](Cc1ccc(F)c(Br)c1)C(=O)O)c1ccc(Br)cc1NS(=O)(=O)c1cccc2nccnc12 [Example 158, (S)-3-(3-Bromo-4-fluoro-phenyl)-2-[4-bromo-2-(quinoxaline-5-sulfonylamino)-benzoylamino]-propionic acid] | – | – | 8.3 | 6.5 |
| O=C(N[C@@H](Cc1ccc(F)c(Br)c1)C(=O)O)c1ccc(Cl)cc1NS(=O)(=O)c1cccc2nccnc12 [Example 159, (S)-3-(3-Bromo-4-fluoro-phenyl)-2-[4-chloro-2-(quinoxaline-5-sulfonylamino)-benzoylamino]-propionic acid] | – | – | 8.0 | 6.4 |
| O=C(N[C@@H](Cc1ccc(F)c(Br)c1)C(=O)O)c1cc(Cl)c(Cl)cc1NS(=O)(=O)c1cccc2nccnc12 [Example 160, (S)-3-(3-Bromo-4-fluoro-phenyl)-2-[4,5-dichloro-2-(quinoxaline-5-sulfonylamino)-benzoylamino]-propionic acid] | – | – | 8.2 | 6.8 |
| O=C(N[C@@H](Cc1ccc(Cl)c(Br)c1)C(=O)O)c1ccc(Br)cc1NS(=O)(=O)c1cccc2nsnc12 [Example 161, (S)-2-[2-(Benzo[1,2,5]thiadiazole-4-sulfonylamino)-4-bromo-benzoylamino]-3-(3-bromo-4-chloro-phenyl)-propionic acid] | – | – | 7.9 | 6.9 |
| O=C(N[C@@H](Cc1ccc(F)c(Br)c1)C(=O)O)c1ccc(Br)cc1NS(=O)(=O)c1cccc2nsnc12 [Example 162, (S)-2-[2-(Benzo[1,2,5]thiadiazole-4-sulfonylamino)-4-bromo-benzoylamino]-3-(3-bromo-4-fluoro-phenyl)-propionic acid] | – | – | 8.2 | 6.6 |
| CCOC(=O)[C@H](Cc1ccc(F)c(Br)c1)NC(=O)c1cc(Cl)c(Cl)cc1NS(=O)(=O)c1cccc2nsnc12 [Example 163, (S)-2-[2-(Benzo[1,2,5]thiadiazole-4-sulfonylamino)-4,5-dichloro-benzoylamino]-3-(3-bromo-4-fluoro-phenyl)-propionic acid ethyl ester] | 398 | 126 | – | – |

— patent US7855292B2, “Sulfonamide compounds” (Janssen Pharmaceutica NV, priority 2004, dated 2010)
